Data: patent publication US8617534B2, “Compositions and method for manipulating PIM-1 activity in circulatory system cells” (San Diego State University (SDSU) Foundation, priority 2007, dated 2013)
Entries after “also recorded” stand apart in the source; their conditions may differ.

Experiments:
protein phosphatase 2A = settings: cited from earlier work
PIM-1 = PIM-1 expression in cultured cardiomyocytes (immunoblot, confocal microscopy); type: cell-based, rat; settings: for PIM-1 protein level (immunoblot): 2 hour exposure; for induction of PIM-1 expression / PIM-1 immunoreactivity by confocal microscopy: treatment for 2 hours; for PIM-1 immunoreactivity by confocal microscopy: compared to control cells
Experimental: Neonatal Rat Cardiomyocyte Cultures infections and treatments. Neonatal rat cardiomyocyte cultures were prepared as described previously^12. Cells to be subjected to treatments were placed in media with 2% serum overnight and then treated with the appropriate agent and harvested or fixed after the pre-described timepoint. Cardiomyocytes were infected with adenovirus for two hours, washed in PBS and then re-fed M199 with 2% FBS and 50 μg/ml pen/strep, and 100 μM glutamine.
Immunoblotting. Infected cardiomyocytes were harvested 24 hours after infection in SDS denaturing sample buffer, sonicated and boiled for 10 minutes, and quantitated using the Bradford assay. Mouse whole heart lysates were generated from flash frozen hearts pulverized in a mortar and pestle then resuspended in SDS denaturing sample buffer, sonicated, boiled for 10 minutes and quantitated using Bradford assay. […] Blots were blocked in 3% BSA for 1 hour, and probed with primary antibodies (PIM-1 (Cell Signaling Technology), c-jun (Cell Signaling Technology), HISTONE3™ (Cell Signaling Technology), GFP (Molecular Probes), bcl-2 (Santa Cruz), bcl-XL (Cell Signaling Technology), PHOSPHO-BADS112™ (Biosource) AKT (Cell Signaling Technology), GAPDH (Research Diagnostics Inc.), PHOSPHO-AKTS473™ (Cell Signaling Technology), total PARP (Biosource), cleaved PARP (Biosource), and cleaved caspase3 (Cell Signaling Technologies)) diluted in blocking solution overnight at 4° C. Blots were washed in TBS-0.5% Tween three times and probed with fluorescent or alkaline phosphatase conjugated secondary antibodies diluted 1:5000 in blocking solution for 1 hour at room temperature followed by three washes in TBS-0.5% Tween. […] All quantitation is based on standardization to loading controls.
Immunohistochemistry. Hearts were fixed and embedded and cardiomyocytes fixed and permeabilized as described previously^12. Staining of cultured neonatal rat cardiomyocytes was performed with antibodies described above diluted 1:25 in PBS containing 10% horse serum overnight at 4° C. Slides were washed in PBS and probed with fluorescent conjugated secondary antibodies (1:100) for one hour at room temperature, and Texas Red phalloidin (1:50 Molecular Probes) to identify actin filaments. Slides were washed three times in PBS, and stained for 30 minutes with TOPRO-3™ (1:5000 Molecular Probes) to identify nuclei, washed once and cover-slipped using […]™ (Vectra Labs). Paraffin embedded samples were cut at 4 μm and deparaffinized through a standard series of Xylene and graded Ethanol steps to water. Antigen retrieval was performed in 10 mM Citrate pH6.0. PIM-1 and phospho-AKT signals were amplified using the TYRAMIDE AMPLIFICATION KIT™ (Perkin Elmer) with primary concentrations of 1:500 for both antibodies, and secondaries 1:3000. Slides were washed following the amplification process, and stained with TOPRO-3 (Molecular Probes) to identify nuclei, washed and cover-slipped with […]™ (Vectra Labs). Confocal imaging of stained slides was performed on a Leica LCS confocal microscope. For comparison purposes, all slides were treated identically and scanned using the same settings in each experiment.

[1] = test system: neonatal rat cardiomyocytes (NRCMs); assay: Endothelin-1 induced hypertrophy, cell surface area of neonatal rat cardiomyocytes; type: cell-based; settings: 10 nM for 1 hour prior to 48 hour incubation with ET-1; compared to ET-1 stimulated cells without inhibitor
Experimental: The impact of Pim-wt overexpression upon cardiomyocyte hypertrophy was initially examined using neonatal rat cardiomyocytes (NRCMs) infected with adenoviruses encoding EGFP-Pim-wt or EGFP protein followed by stimulation with endothelin-1 (ET-1) for 24 hours.
Neonatal rat cardiomyocyte cultures were prepared as described previously (10).

| Molecule | PIM-1 protein level (immunoblot) (PIM-1) | induction of PIM-1 expression (PIM-1) [fold] | PIM-1 immunoreactivity by confocal microscopy (PIM-1) | other results |
| --- | --- | --- | --- | --- |
| C=C1[C@@H](O)[C@@H]2O[C@]3(CC[C@H](/C=C/[C@@H](C)[C@@H]4CC(C)=C[C@@]5(O[C@H](C[C@@](C)(O)C(=O)O)CC[C@H]5O)O4)O3)CC[C@H]2O[C@@H]1[C@@H](O)C[C@H](C)[C@H]1O[C@@]2(CCCCO2)CC[C@H]1C [Okadaic acid] |  |  |  | effect on negative regulation of PIM-1 by protein phosphatase 2A (protein phosphatase 2A): inhibit or block negative regulation of PIM-1 by protein phosphatase 2A |
| CCCCCCCCCCCCCC(=O)O[C@@H]1[C@@H](C)[C@@]2(O)[C@@H](C=C(CO)C[C@]3(O)C(=O)C(C)=C[C@@H]23)[C@@H]2C(C)(C)[C@]12OC(C)=O [PMA] | significantly increased PIM-1 expression; also recorded: Induction is evident | 2.3 | induced PIM-1 immunoreactivity |  |
| C[C@@H]1C[C@H]2[C@@H]3CCC4=CC(=O)C=C[C@]4(C)[C@@]3(F)[C@@H](O)C[C@]2(C)[C@@]1(O)C(=O)CO [dexamethasone] |  | 2.0 |  |  |
| C=C[C@@]1(C)CC(=O)[C@]2(O)[C@@]3(C)[C@@H](O)CCC(C)(C)[C@@H]3[C@H](O)[C@H](OC(C)=O)[C@@]2(C)O1 [forskolin] |  |  |  | reduction of PIM-1 expression (PIM-1; versus control cultures): 45% |
| CNC[C@H](O)c1cccc(O)c1 [phenylephrine] | did not markedly increase Pim-1 protein expression |  | not induced | PIM-1 protein level (immunoblot) (PIM-1; listed as phenyl-ephedrine): little or no increase |
| O=c1c(O)c(-c2ccc(O)c(O)c2)oc2cc(O)c(O)c(O)c12 [quercetagetin] |  |  |  | cell surface of Pim-1 expressing NRCM cultures [1]: significantly larger surface |
| COC[C@H]1OC(=O)c2coc3c2[C@@]1(C)C1=C(C3=O)[C@@H]2CCC(=O)[C@@]2(C)C[C@H]1OC(C)=O [wortmannin] |  |  |  | reduction of PIM-1 expression in response to IGF-1 treatment (PIM-1; in the presence of the inhibitor or inactivated AKT): 4.0 fold |
| Insulin-like Growth Factor [IGF-1] | significantly increased PIM-1 expression; also recorded: Induction is evident | 2.7 | induced PIM-1 immunoreactivity |  |
| Leukemia Inhibitory Factor [LIF] | significantly increased PIM-1 expression | 2.8 | induced PIM-1 immunoreactivity |  |
| endothelin-1 | little or no increase; also recorded: did not markedly increase Pim-1 protein expression |  | not induced |  |
| SV40 small T antigen: viral protein said to block negative regulation of PIM-1 by protein phosphatase 2A (protein, UniProt P03081 1-174, looked up) Small t antigen: MDKVLNREESLQLMDLLGLERSAWGNIPLMRKAYLKKCKEFHPDKGGDEEKMKKMNTLYKKMEDGVKYAHQPDFGGFWDATEVFASSLNPGVDAMYCKQWPECAKKMSANCICLLCLLRMKHENRKLYRKDPLVWVDCYCFDCFRMWFGLDLCEGTLLLWCDIIGQTTYRDLKL |  |  |  | effect on negative regulation of PIM-1 by protein phosphatase 2A (protein phosphatase 2A): inhibit or block negative regulation of PIM-1 by protein phosphatase 2A |
